Common to all, as to type: functional
The test system of experiment [1] is Staphylococcus aureus. In words: Resistance index, ratio of MIC for antibacterial activity against methicillin-resistant Staphylococcus aureus […] to MIC for antibacterial activity against methicillin-sensitive Staphylococcus aureus.
In experiment [2] the test system is Staphylococcus aureus. In words: Antibacterial activity against Staphylococcus aureus ATCC 25923 by CLSI-based broth microdilution method.
In experiment [3] the test system is Staphylococcus aureus. Put plainly: Antibacterial activity against Methicillin-resistant Staphylococcus aureus ATCC 510019 incubated for 18 to 24 hrs by CLSI-based microbroth dilution method. The settings on record: time 18-24 hrs.
The test system of experiment [4] is Staphylococcus aureus. Put plainly: Antibacterial activity against Methicillin-resistant Staphylococcus aureus ATCC 52056 incubated for 18 to 24 hrs by CLSI-based microbroth dilution method. Conditions: time 18-24 hrs.
In experiment [5] the test system is Staphylococcus aureus. In words: Antibacterial activity against Methicillin-resistant Staphylococcus aureus ATCC 51033 incubated for 18 to 24 hrs by CLSI-based microbroth dilution method. Conditions: time 18-24 hrs.
In experiment [6] the test system is Staphylococcus aureus. Put plainly: Antibacterial activity against Methicillin-resistant Staphylococcus aureus ATCC 51599-2 incubated for 18 to 24 hrs by CLSI-based microbroth dilution method. Conditions: time 18-24 hrs.
The subject of experiment [7] is Staphylococcus aureus. In words: Antibacterial activity against Methicillin-resistant Staphylococcus aureus ATCC 43300 incubated for 18 to 24 hrs by CLSI-based microbroth dilution method. Conditions: time 18-24 hrs.
For experiment [8], the system named is Staphylococcus aureus. Put plainly: Antibacterial activity against Methicillin-resistant Staphylococcus aureus ATCC 52351-2 incubated for 18 to 24 hrs by CLSI-based microbroth dilution method. The settings on record: time 18-24 hrs.
In experiment [9] the test system is Staphylococcus aureus. In words: Antibacterial activity against Methicillin-resistant Staphylococcus aureus ATCC 51345 incubated for 18 to 24 hrs by CLSI-based microbroth dilution method. Conditions: time 18-24 hrs.
Experiment [10] has as its system Staphylococcus aureus. In words: Antibacterial activity against Methicillin-resistant Staphylococcus aureus ATCC 60202 incubated for 18 to 24 hrs by CLSI-based microbroth dilution method. Conditions: time 18-24 hrs.
Experiment [11] deals with Staphylococcus aureus. Put plainly: Antibacterial activity against Methicillin-resistant Staphylococcus aureus ATCC 405055 incubated for 18 to 24 hrs by CLSI-based microbroth dilution method. Conditions: time 18-24 hrs.
In experiment [12] the test system is Staphylococcus aureus. In words: Resistance index, ratio of MIC for antibacterial activity against Staphylococcus aureus ATCC 43300 incubated for 18 hrs to MIC for antibacterial activity against Staphylococcus aureus ATCC 25923 incubated for 18 hrs.
Experiment [13] has as its system Staphylococcus aureus. Put plainly: Antibacterial activity against methicillin-resistant Staphylococcus aureus ATCC 43300 incubated for 18 hrs.
Experiment [14] relates to Staphylococcus aureus. In words: Antibacterial activity against methicillin-susceptible Staphylococcus aureus ATCC 25923 incubated for 18 hrs.
Experiment [15] concerns Staphylococcus aureus. In words: Antibacterial activity against methicillin-resistant Staphylococcus aureus ATCC 33591 incubated for 18 hrs.
Experiment [16] concerns Staphylococcus aureus. Put plainly: Potency index, ratio of linezolid MIC to compound MIC for antibacterial activity against methicillin-resistant Staphylococcus aureus ATCC 33591.
In experiment [17] the test system is Staphylococcus aureus. Put plainly: Antibacterial activity against Methicillin-resistant Staphylococcus aureus ATCC 33591 incubated for 20 hrs by broth two-fold dilution method.
For experiment [18], the system named is Staphylococcus aureus. Put plainly: Bactericidal activity against methicillin-resistant Staphylococcus aureus ATCC 33591 measured after 20 hrs.
In experiment [19] the test system is Staphylococcus aureus. Put plainly: Antibacterial activity against Methicillin-resistant Staphylococcus aureus USA200 by CLSI-based microdilution method.
The test system of experiment [20] is Staphylococcus aureus. Put plainly: Antibacterial activity against wild type Methicillin-resistant Staphylococcus aureus by CLSI-based microdilution method.
Experiment [21] relates to Staphylococcus aureus. Put plainly: Antibacterial activity against Methicillin-resistant Staphylococcus aureus USA600 by CLSI-based microdilution method.
Experiment [22] relates to Staphylococcus aureus. Put plainly: Antibacterial activity against Methicillin-resistant Staphylococcus aureus USA100 by CLSI-based microdilution method.
For experiment [23], the system named is Staphylococcus aureus. In words: Antibacterial activity against Methicillin-resistant Staphylococcus aureus USA300 by CLSI-based microdilution method.
In experiment [24] the test system is Staphylococcus aureus. Put plainly: Antibacterial activity against Methicillin-resistant Staphylococcus aureus 2 incubated for 16 hrs by agar dilution method.
Experiment [25] relates to Enterococcus. In words: Antibacterial activity against Vancomycin-resistant enterococcus 1 incubated for 16 hrs by agar dilution method.
The subject of experiment [26] is Staphylococcus aureus. Put plainly: Antibacterial activity against Methicillin-resistant Staphylococcus aureus 1 incubated for 16 hrs by agar dilution method.
The test system of experiment [27] is Enterococcus. In words: Antibacterial activity against Vancomycin-resistant enterococcus 2 incubated for 16 hrs by agar dilution method.
Experiment [28] relates to Staphylococcus aureus. Put plainly: Antibacterial activity against methicillin-resistant Staphylococcus aureus.

Converted amounts (≈) assume the structure as drawn.

As to `c1ccc(SCn2cc(COc3ccc(-c4nc5cc(C6=NCCN6)ccc5[nH]4)cc3)nn2)cc1`, in experiment [1], the Ratio is 0.125. The compound further showed an MIC in experiment [2] of 8 µg/mL (≈ 16.6 µM).

Take `Cc1nc(C)c(COc2ccc(N3C[C@H](Cn4ccnn4)OC3=O)cc2)nc1C`: the MIC in experiment [3], in experiment [4], in experiment [5], in experiment [6], in [7] and in experiment [8] was 4 µg/mL (≈ 10.1 µM) each time. For the same compound, the MIC in [9], in experiment [10] and in experiment [11] was 4 µg/mL (≈ 10.1 µM) each time.

Consider `NC[C@H]1O[C@@H](O[C@@H](Cc2cn(CCCCCCCCCCOc3ccc(C(=O)c4ccccc4)cc3)nn2)[C@H]2O[C@@H](n3ccc(=O)[nH]c3=O)[C@H](O)[C@@H]2O)[C@H](O)[C@@H]1O.O=C(O)C(F)(F)F`, for which, in experiment [12], the Ratio was 0.5. The compound further displayed an MIC in experiment [13] of 8 µg/mL.

With `CC(=O)NC[C@H]1CN(c2ccc(-n3cc(-c4ccncn4)nn3)c(F)c2)C(=O)O1`, the MIC in experiment [14] worked out at 2 µg/mL (≈ 5.03 µM); in experiment [15], 0.5 µg/mL (≈ 1.26 µM). In addition, in experiment [16], the Ratio is reported as 4.

Turning to `COc1cc(/C=C/c2ccc(OCc3cn(-c4ccc(C(=O)O)cc4)nn3)cc2)cc(OC)c1`, in experiment [17], the MIC turned out to be 1.2 µg/mL (≈ 2.62 µM). Further, the MBC in [18] was determined as 19.5 µg/mL (≈ 42.6 µM).

Turning to `COc1cc(/C=C/c2ccc(O)cc2)cc(OC)c1` [PTEROSTILBENE], in [17], the MIC worked out at 41 µg/mL (≈ 160 µM). Besides, the minimum bactericidal concentration (MBC) in experiment [18] is 41 µg/mL (≈ 160 µM).

Take `CC(C)NC(=N)c1ccc2[nH]c(-c3ccc(OCc4cn(-c5ccccc5Cl)nn4)cc3)nc2c1`: in experiment [1], the Ratio was 0.125. In experiment [2], this compound came in with an MIC of 8 µg/mL (≈ 16.5 µM).

Consider `CC(=O)NC[C@H]1CN(c2ccc(-n3cc(-c4ccccn4)nn3)c(F)c2)C(=O)O1`, for which the MIC amounted to 2 µg/mL (≈ 5.05 µM) in [14] and 0.5 µg/mL (≈ 1.26 µM) in experiment [15]. Also, the Ratio in experiment [16] was found to be 4.

For the compound `NC[C@@H]1O[C@H](O[C@H]2[C@@H](O)[C@H](O[C@@H]3[C@@H](O)[C@H](N)C[C@H](N)[C@H]3O[C@H]3O[C@H](CN)[C@@H](O)[C@H](O)[C@H]3N)O[C@@H]2Cn2cc(COCCCCCCCCOCc3cn(C[C@H]4O[C@@H](O[C@@H]5[C@@H](O)[C@H](N)C[C@H](N)[C@H]5O[C@H]5O[C@H](CN)[C@@H](O)[C@H](O)[C@H]5N)[C@H](O)[C@@H]4O[C@H]4O[C@@H](CN)[C@@H](O)[C@H](O)[C@H]4N)nn3)nn2)[C@H](N)[C@@H](O)[C@@H]1O`, the minimum inhibitory concentration (MIC) in [19], in experiment [20], in [21], in [22] and in [23] was 25 µg/mL (≈ 16.6 µM) each time.

For `CC(C)C[C@H](C(=O)N[C@@H]1Cc2ccc(c(Cl)c2)Oc2cc3cc(c2O[C@@H]2O[C@H](CO)[C@@H](O)[C@H](O)[C@H]2O[C@H]2C[C@](C)(NCCCCCCCc4ccccc4)[C@H](O)[C@H](C)O2)Oc2ccc(cc2Cl)[C@@H](O)[C@@H]2NC(=O)[C@H](NC(=O)[C@@H]3NC(=O)[C@H](CC(=O)O)NC1=O)c1ccc(O)c(c1)-c1c(O)cc(O)cc1[C@H](C(=O)O)NC2=O)n1cc(COCCOCCOCc2cn([C@H](CC(C)C)C(=O)N[C@@H]3Cc4ccc(c(Cl)c4)Oc4cc5cc(c4O[C@@H]4O[C@H](CO)[C@@H](O)[C@H](O)[C@H]4O[C@H]4C[C@](C)(NCCCCCCCc6ccccc6)[C@H](O)[C@H](C)O4)Oc4ccc(cc4Cl)[C@@H](O)[C@@H]4NC(=O)[C@H](NC(=O)[C@@H]5NC(=O)[C@H](CC(=O)O)NC3=O)c3ccc(O)c(c3)-c3c(O)cc(O)cc3[C@H](C(=O)O)NC4=O)nn2)nn1`, the MIC in experiment [24] came to 12.5 µg/mL (≈ 3.65 µM); in [25], 25 µg/mL (≈ 7.3 µM); in experiment [26], 6.25 µg/mL (≈ 1.83 µM); in experiment [27], 12.5 µg/mL (≈ 3.65 µM).

Consider `Cc1nc(C)c(COc2ccc(N3C[C@H](Cn4ccnn4)OC3=O)cc2F)nc1C`, for which the minimum inhibitory concentration (MIC) in experiment [3], in experiment [4], in [5], in [6], in [7] and in [8] was 4 µg/mL (≈ 9.7 µM) each time. The MIC in experiment [9], in [10] and in [11] was 4 µg/mL (≈ 9.7 µM) throughout.

`COc1c(N2C[C@@H]3CCCN[C@@H]3C2)c(F)cc2c(=O)c(C(=O)O)cn(C3CC3)c12` [MOXIFLOXACIN] displayed an MIC in experiment [28] of 8 µg/mL (≈ 19.9 µM).
